The data set in a line: in vitro. The note with it: human, hela cells, % viability.

Each structure is given as a SMILES string.

The term viability denotes a read-out of living cells in per cent, often relative to untreated cells. In the case of `CCC1CCCCN1S(=O)(=O)c1ccc(NC(=O)Cn2c(=O)oc3ccccc32)cc1` (stereo not shown) [CBK268069], the viability at 28.5 h, 10 µM was determined as 89.2%.

As to `CC(=O)NC(=S)Nc1ccc(Oc2ccccc2)cc1` [CBK288454], the viability at 28.5 h, 10 µM was 86.6%.

For `Cc1nccn1CC(C)CNc1ccc(C(=O)c2ccccc2)cc1[N+](=O)[O-]` (stereo not shown) [CBK298336], the viability at 28.5 h, 10 µM came to 80.4%.

As for `Cc1ccc(S(=O)(=O)N(CC(=O)Nc2ccccc2F)c2cc(Cl)ccc2Cl)cc1` [CBK268647], the viability at 28.5 h, 10 µM turned out to be 111%.

In the case of `O=C(COc1ccc(Cl)cc1Br)NNC(=O)c1ccccc1O` [CBK262943], the viability at 28.5 h, 10 µM was determined as 97.8%.

`CC(C)CC(=O)N1CCN(Cc2nc3sc4c(c3c(=O)[nH]2)CCC4)CC1` [CBK305014]: the viability at 28.5 h, 10 µM was 86.4%.

Consider `Cc1nc(CN2CCC(Oc3nccnc3OCc3ccc(Cl)c(Cl)c3)CC2)cs1` [CBK153787], for which the viability at 28.5 h, 10 µM was 95.9%.

Turning to `COc1ccc(C(C)C)cc1-c1cnc(N)c(NCc2ccncc2)n1` [CBK063695], the viability at 28.5 h, 10 µM was 97.5%.

On to `OCCN(Cc1cccnc1)Cc1cccn1-c1ccccc1Cl` [CBK282936], for which the viability at 28.5 h, 10 µM worked out at 89.7%.

For the compound `CCCc1nc(SC)ncc1C(=O)NCc1ccccn1` [CBK291190], the viability at 28.5 h, 10 µM came out at 108%.

Take `CCc1c(C)sc(NC(=O)c2ccc(Br)o2)c1C#N` [CBK021662]: the viability at 28.5 h, 10 µM amounted to 83.6%.

Turning to `Cc1ccc(N(CC(=O)Nc2ccc(Br)c(C)c2)S(=O)(=O)c2ccc(C)cc2)cc1` [CBK264038], the viability at 28.5 h, 10 µM was 94.6%.

On to `CCNc1n[nH]c(N)c1-c1nc(-c2ccc(OC)cc2)no1` [CBK288557], for which the viability at 28.5 h, 10 µM turned out to be 94.2%.

In the case of `CC(C)(C)SCC(=O)c1ccc2c(c1)CCC(=O)N2` [CBK006168], the viability at 28.5 h, 10 µM came to 104%.

As to `CCc1cc(C(=O)N2CCCC(c3cc4ccccc4cn3)C2)on1` (stereo not shown) [CBK285156], the viability at 28.5 h, 10 µM came out at 101%.

For the compound `CNC(=S)N1CCN(c2nccnc2NS(=O)(=O)Cc2ccccc2)CC1` [CBK049044], the viability at 28.5 h, 10 µM was determined as 102%.

As to `CCC1=NC(c2ccccc2Cl)N(O)C1(C)C` (stereo not shown) [CBK026466], the viability at 28.5 h, 10 µM is 97.5%.

Turning to `Cc1ccc(Oc2ccc(C(=O)NCC(=O)O)cc2)cc1C` [CBK286570], the viability at 28.5 h, 10 µM worked out at 84.5%.

Consider `C[C@H]1CN2C[C@H](O)CC2CN1Cc1cccn1-c1ccc(F)cc1` (stereo partly shown) [CBK285465], for which the viability at 28.5 h, 10 µM stood at 97.4%.

On to `CN(Cc1nc2c(s1)CCCC2)C(=O)COc1ncnc2ccccc12` [CBK307151], for which the viability at 28.5 h, 10 µM was determined as 90.7%.

For `COc1ccc(S(=O)(=O)N2CCN(C(=O)COc3ccc4ccccc4c3)CC2)cc1` [CBK263371], the viability at 28.5 h, 10 µM worked out at 91.5%.

With `CCNc1nc(-c2ccc3c(c2)CCCN3S(C)(=O)=O)cs1` [CBK305861], the viability at 28.5 h, 10 µM stood at 89.8%.

For the compound `Cc1cc(C(F)(F)F)nc(SCC(=O)N2c3ccccc3Sc3ccccc32)n1` [CBK268078], the viability at 28.5 h, 10 µM was determined as 90.8%.

Take `Cc1cc(S(=O)(=O)N2CCCC2)ccc1OCC(=O)NCc1ccccn1` [CBK270027]: the viability at 28.5 h, 10 µM came to 96%.

For `N#Cc1c(NC(=O)c2ccc(C(=O)O)cc2C(=O)O)sc2c1CCCC2` [CBK262722], the viability at 28.5 h, 10 µM came to 105%.

For `COc1cc(CN2Cc3cccc(C(=O)O)c3C2=O)cc(OC)c1OC` [CBK291227], the viability at 28.5 h, 10 µM stood at 108%.

Turning to `CCOC(=O)c1cn(CCSCC)cc(Oc2ccccc2)c1=O` [CBK307244], the viability at 28.5 h, 10 µM was determined as 115%.

Regarding `CNc1sc(C(=O)c2ccc(OC)c(OC)c2)c(N)c1C#N` [CBK270194], the viability at 28.5 h, 10 µM worked out at 86.1%.

Take `CS(=O)(=O)c1ccc(CN2C[C@@H]3OCC(=O)N(Cc4ccc(F)cc4)[C@@H]3C2)cc1` [CBK289690]: the viability at 28.5 h, 10 µM was 119%.

Regarding `Clc1cccc(Cl)c1CN(Cc1ccccc1)c1ncnc2[nH]cnc12` [CBK266571], the viability at 28.5 h, 10 µM turned out to be 95.2%.

Turning to `Cc1ccc(C(=O)NCC2COc3ccccc3O2)c(N2CCN(C(=O)c3ccco3)CC2)n1` (stereo not shown) [CBK076356], the viability at 28.5 h, 10 µM is 93.9%.

As for `Cc1nnc2nc(-c3ccc(Cl)cc3Cl)[nH]n12` [CBK027731], the viability at 28.5 h, 10 µM turned out to be 88.1%.

Consider `COc1c(Cl)ccc(Cl)c1C(=O)OCC(=O)O` [CBK264596], for which the viability at 28.5 h, 10 µM came out at 115%.

Regarding `CCC(CN1CCCCC1)n1cncc1-c1cn(C)nc1C` (stereo not shown) [CBK281460], the viability at 28.5 h, 10 µM was found to be 96.9%.

`CCc1nccn1CCC(=O)Nc1ccc2c(c1)nc(CC)n2CC` [CBK281629]: the viability at 28.5 h, 10 µM came to 81.2%.

Take `Cc1ccc2c(c1)OC(C)(C)CC2NC(=O)C1CCN(C)CC1` (stereo not shown) [CBK307626]: the viability at 28.5 h, 10 µM was 110%.

As for `Cc1sc(NC(=O)CN(Cc2cnn(C)c2)C(C)C)c(C#N)c1C` [CBK306303], the viability at 28.5 h, 10 µM was 93.1%.

Regarding `Cc1ccc(C(=O)NC(Cc2cccs2)c2ccccn2)c(=O)[nH]1` (stereo not shown) [CBK285210], the viability at 28.5 h, 10 µM amounted to 89.8%.

Turning to `Cc1ncccc1COC(=O)N1c2ccc(F)cc2CCC1C` (stereo not shown) [CBK200139], the viability at 28.5 h, 10 µM was 92.2%.

With `Cn1c(Cc2cccs2)nnc1SCC(=O)c1c[nH]c2ccccc12` [CBK268534], the viability at 28.5 h, 10 µM was found to be 102%.

For the compound `O=C(O)c1ccc(C(=O)NC2CCN(CC(F)(F)F)C2=O)s1` (stereo not shown) [CBK305524], the viability at 28.5 h, 10 µM turned out to be 95.4%.

As to `FC(F)(F)c1csc(Nc2ccc(Cl)c(Cl)c2)n1` [CBK019093], the viability at 28.5 h, 10 µM was found to be 85.6%.

As for `NS(=O)(=O)c1cc(C(=O)O)ccc1F` [CBK113180], the viability at 28.5 h, 10 µM was found to be 81.1%.

As for `O=C(C1=C(O)C(=O)N(CCCn2ccnc2)C1c1ccccc1)c1cccs1` (stereo not shown) [CBK264484], the viability at 28.5 h, 10 µM worked out at 110%.

Consider `CCOC(=O)C1(c2ccccc2)CCN(C(=O)COc2ccccc2OC)CC1` [CBK132183], for which, for the setting “bulk resorufin, single well”, the viability at 28.5 h, 10 µM turned out to be 87.1%.

Turning to `CC(=O)Nc1cccc(C(=O)N2CCC(OCc3ccccn3)CC2)c1` [CBK307009], the viability at 28.5 h, 10 µM stood at 114%.

As for `S=C(NCCc1ccccc1)NCCn1cc(Cl)cn1` [CBK266912], the viability at 28.5 h, 10 µM is 103%.

In the case of `O=C(c1c(F)cc(-c2cncc(-c3ccc(O)cc3)n2)cc1F)N1CCOCC1` [CBK131973], the viability at 28.5 h, 10 µM was 90.5%.

Take `O=C(Nc1ccc2ccccc2c1)c1ccccc1N(Cc1ccccc1)S(=O)(=O)c1ccccc1` [CBK263751]: the viability at 28.5 h, 10 µM came to 91.5%.

Take `COc1cccc(C2C(C(=O)c3ccc(Br)cc3)=C(O)C(=O)N2CCCN(C)C)c1` (stereo not shown) [CBK264921]: the viability at 28.5 h, 10 µM came to 84.5%.

Consider `Cc1cc(NC(=O)CN(C)CCNC(=O)C2CCCC2)no1` [CBK305237], for which the viability at 28.5 h, 10 µM was found to be 84.9%.

As for `O=C(CSCc1ccc([N+](=O)[O-])cc1)Nc1ccc(O)cc1C(=O)O` [CBK131710], the viability at 28.5 h, 10 µM is 89.4%.

Consider `CCC(=O)Nc1nc(-c2ccc(C(=O)OC)cc2)nc2c1c(=O)oc1ccccc12` [CBK268449], for which the viability at 28.5 h, 10 µM was determined as 110%.

As for `CC[C@H](Cn1ncc2ccccc2c1=O)NC(=O)c1ccc2c(c1)Sc1ccccc1O2` [CBK286173], the viability at 28.5 h, 10 µM worked out at 81.3%.

For `CCN(CC)CCn1c(NC(=O)c2c(Cl)nc3ccccn23)nc2ccccc21` [CBK298305], the viability at 28.5 h, 10 µM was determined as 107%.

In the case of `Nc1cccc(S(=O)(=O)N2CCC(C(=O)O)CC2)c1` [CBK286541], the viability at 28.5 h, 10 µM came to 88.2%.

For `O=C(COc1ccc2ccccc2c1)Nc1ccc(Cl)cc1Cl` [CBK263598], the viability at 28.5 h, 10 µM was found to be 106%.

Consider `O=C(Cn1nnc2ccccc21)Nc1ccc(Cl)cn1` [CBK296068], for which the viability at 28.5 h, 10 µM came to 97.9%.

For `Cc1cnn(CCC(=O)N2CCOC(c3nc(C(C)(C)C)n[nH]3)C2)c1` (stereo not shown) [CBK305336], the viability at 28.5 h, 10 µM was 110%.

As for `Cc1ccc(N2CCN(S(=O)(=O)c3ccc(I)cc3)CC2)c(C)c1` [CBK098562], the viability at 28.5 h, 10 µM was found to be 91.7%.

As for `CCN1CCN(C(=O)c2c[nH]c3ccccc23)CC1` [CBK200245], the viability at 28.5 h, 10 µM was found to be 103%.

Take `O=C(N/N=C/c1ccc(O)cc1O)c1[nH]c2ccc([N+](=O)[O-])cc2c1-c1ccccc1` [CBK263328]: the viability at 28.5 h, 10 µM came out at 69.7%.

Take `CSCCCNC(=O)c1ccccc1Nc1cccc(C(F)(F)F)c1` [CBK149551]: the viability at 28.5 h, 10 µM is 71.3%.

On to `O=C(Nc1ccc(C(=O)OCC(=O)c2cccc3ccccc23)cc1)c1ccccc1` [CBK265518], for which the viability at 28.5 h, 10 µM came to 115%.

`O=c1[nH]c(=O)c2cc(S(=O)(=O)N3CCCC(c4ccccc4)C3)ccc2[nH]1` (stereo not shown) [CBK286381]: the viability at 28.5 h, 10 µM worked out at 106%.

As for `COc1cccc(NC(=O)Cn2cc(OC)c(=O)cc2CN2CCOCC2)c1` [CBK294430], the viability at 28.5 h, 10 µM is 87.2%.

`CN(C)c1nc2c(c(=O)[nH]c(=O)n2C)n1Cc1cccc2ccccc12` [CBK140560]: the viability at 28.5 h, 10 µM came to 90.1%.

Regarding `CCOC(=O)c1ccccc1NS(=O)(=O)c1ccc(C(F)(F)F)cc1[N+](=O)[O-]` [CBK050584], the viability at 28.5 h, 10 µM was found to be 96.2%.

As for `FC(F)(F)c1cc(-c2ccccc2)nc2onc(OCCN3CCOCC3)c12` [CBK269392], the viability at 28.5 h, 10 µM is 90.9%.

With `CC(C)c1cc(C(=O)N2C[C@H](C)N(Cc3ccco3)C[C@@H]2C)on1` [CBK283053], the viability at 28.5 h, 10 µM worked out at 90.9%.

For `CCC#CC(=O)Nc1ccc(N2CCNCC2)nc1` [CBK004746T], the viability at 28.5 h, 10 µM amounted to 101%.

In the case of `O=C(NCCCN1CCOCC1)c1c(Cl)cccc1Cl` [CBK263631], the viability at 28.5 h, 10 µM turned out to be 93%.

In the case of `COc1ccc(-c2cc(C(=O)NCCc3cccc(C(F)(F)F)c3)cnc2-c2ccccc2)cn1` [CBK036662], the viability at 28.5 h, 10 µM stood at 99.9%.

For the compound `Cn1cc(C2CCCCCN2S(=O)(=O)c2ccc3[nH]c(=O)[nH]c(=O)c3c2)cn1` (stereo not shown) [CBK286406], the viability at 28.5 h, 10 µM stood at 103%.

Regarding `O=S(=O)(Nc1ccc2c(ccn2Cc2ccccc2)c1)c1cc(C(F)(F)F)cc(C(F)(F)F)c1` [CBK159540], the viability at 28.5 h, 10 µM was determined as 94.7%.

`CCC(Sc1ncccc1C(=O)O)C(=O)O` (stereo not shown) [CBK263216]: the viability at 28.5 h, 10 µM was 98.4%.

With `Cc1nc2c(c(=O)[nH]1)CN(Cc1c[nH]c3ccccc13)CC2` [CBK282327], the viability at 28.5 h, 10 µM was found to be 102%.

As for `O=S(=O)(Nc1cccc2[nH]ccc12)c1ccc(F)cc1` [CBK153522], the viability at 28.5 h, 10 µM was 60.9%.

Consider `CN1CCC(N2CCN(C(=O)NCCN3CCOCC3)CC2)CC1` [CBK155891], for which the viability at 28.5 h, 10 µM turned out to be 93.8%.

These data come from publication PMC12040169 (PLOS Biology, 2025).
